Test results as given in patent publication US10821117B2, “Estrogen therapy for brain gray matter atrophy and associated disability” (The Regents of the University of California, priority 2014, dated 2020).

Tested on: relapsing remitting multiple sclerosis patients
Assay: Voxel-based morphometry (VBM) of gray matter loss
Format: in vivo, human
Settings: at 12 months; FDR P≤0.05; FIG. 9
Description: Voxel-based morphometry (VBM) analyses were performed as described by Kurth et al. (Neuroimage Clin. 4:454 (2014)). All subjects included in the VBM cohort were required to have at least reached month 12 of the study, and all images had to pass quality control before and after image preprocessing to be included in the VBM cohort. Using this criteria, the VBM cohort consisted of Ill subjects (62 in the estriol+GA, and 49 in the placebo+GA group) from 13 sites for month 12 analyses, and 86 of these subjects (45 in the estriol+GA, and 41 in the placebo+GA group) for 24 month analyses.
Brain images were preprocessed utilizing SPM8 and the VBM8 toolbox. White matter lesions were in-painted to minimize their impact based on manual delineations that were used for the analysis of new T2 lesions. […]
For the statistical analysis, a general linear model was applied that used the smoothed gray matter segments as the dependent and group x time as the independent variable. […] Applying this model, the interaction between group and time was calculated using T-tests to investigate group differences in local gray matter changes between month 0 and month 12 (month 0 and month 24, respectively). […]

glatiramer acetate [Placebo + GA]
voxel-wise gray matter loss as compared to baseline: significant localized gray matter loss
voxel-wise gray matter loss, between group comparison: significantly more gray matter loss
